Where two headings read alike, the source gives them in different places.

The values that follow come from publication PMC9911168, “Cytotoxic and pro-apoptotic effects of botanical drugs derived from the indigenous cultivated medicinal plant Paris polyphylla var. yunnanensis” (Frontiers in Pharmacology, 2023).

Common to all, as to type: cell-based, human
Assay [1] concerns A549 cells. As to the kind of experiment: Cell cycle analysis (PI staining, flow cytometry), A549. The note with it: A549, 24 h; saponins 1 and 5 at 0.5 μM, other four at 1 μM. Here is the method:
(§1) Cell cycle distribution was determined by propidium iodide (PI, BD, Pharmingen) staining ([Kong et al., 2016]; [Wei et al., 2021]). Briefly, three cancer cell lines were cultured in six-well plates at a density of 3 × 10^5 cells per well for 24 h before treatment with each of the six isolated saponins at the indicated concentrations for 24 h. The cells were collected, centrifuged, and washed twice with ice-cold PBS. Cells were fixed in 70% (v/v) ice-cold ethanol at 4°C overnight and washed again in PBS twice. The cells were incubated with 100 μL RNase A at 37°C for 30 min in the dark, after which 400 μL PI was added to the cells with RNase A in the dark at 4°C for 15 min. The cell cycle stage was analyzed by flow cytometry (BD, FACSCelesta, United States) with FLOWJO software (FlowJo, Ashland, OR, United States).
A general note: A flow cytometer gives signals particle by particle.

In assay [2] the test system is SMMC-7721 cells. Nature of the assay: Cell cycle analysis (PI staining, flow cytometry), SMMC-7721. Conditions: SMMC-7721, 24 h, 1 μM. On the procedure: as §1
Assay [3] concerns SMMC-7721 cells. Nature of the assay: Apoptosis by annexin V-FITC/PI staining, SMMC-7721. Conditions: SMMC-7721, saponins 5 μM, Figure 7. Here is the method: (§2) Double staining with annexin V-fluorescein isothiocyanate (FITC) and PI was used to determine the effects of the six saponins on cell apoptosis by flow cytometry ([Homburg et al., 1995]; [Vermes et al., 1995]; [Casciola-Rosen et al., 1996]). The effects of the six isolated saponins on apoptosis were determined using an annexin V-FITC apoptosis kit (BD, Pharmingen); the chemotherapy drug doxorubicin (DOX, Beyotime Institute of Biotechnology, Shanghai, China) was used as the positive control. Cells were cultured in six-well plates at a density of 3 × 10^5 cells per well for 24 h before being treated with each of the six isolated saponins at the indicated concentrations for 24 h. The cells were collected, centrifuged, and washed twice with ice-cold phosphate-buffered saline (PBS). The cells were stained with annexin V-FITC and PI for 15 min in the dark at room temperature before analysis by flow cytometry (BD, FACSCelesta, America). Annexin V-FITC^+ and PI^+ (Q2) were considered late-stage apoptotic cells, while annexin V-FITC^+ and PI^− (Q3) cells were considered early-stage apoptotic cells. Annexin V-FITC^– and PI^+ (Q1) were necrotic or mechanically damaged cells, and annexin V-FITC^– and PI^− (Q4) cells were healthy living cells.

For another assay, the system named is A549. As to the kind of experiment: MTS cell viability assay, A549. The note with it: read-out: IC50 (±SD) A549. On the procedure: (§3) The effects of the extracts and isolated saponins on cell growth were evaluated by the MTS assay (3-(4,5-dimethylthiazol-2-yl)-5(3-carboxymethoxyphenyl)-2-(4-sulfopheny)-2H-tetrazolium; Promega, Madison, WI, United States) on human tumor cell lines ([Mosmann, 1983]; [Cory et al., 1991]; [Malich et al., 1997]). In a test experiment of cell inhibition, the cell inhibition effects of six crude extracts (100 μg/mL) and six isolated saponins (40 μM) were roughly measured to ascertain whether to measure the IC50 value by MTS assay.
(§4) Each well of a 96-well plate (Multiskan Fc, Therm) was seeded with 100 μL cells at a density of 3,000–5,000 cells per well, with the cell suspension containing 10% (v/v) fetal bovine serum (DMEM or RMPI1640, Biological Industries, Kibbutz Beit-Haemek, Israel). After 12–24 h of inoculation and culture at 37°C, the extracts or saponins were added at the indicated concentrations after being dissolved in dimethyl sulfoxide (DMSO, Biological Industries, Kibbutz Beit-Haemek, Israel) in a final volume of 200 μL per well, each in triplicate. The six crude extracts were added at concentrations of 100, 20, 4, 0.8, and 0.16 μg/mL; the six isolated saponins were added at concentrations of 10, 5, 2.5, 1.25, 0.625, and 0.3125 μM. After culture for 48 h at 37°C, 20 μL of MTS solution and 100 μL of DMEM were added to each well; three blank wells were set aside with 20 μL MTS solution and 100 μL DMEM. After an incubation for another 2–4 h, the absorbance at 492 nm was measured. Cisplatin and Paclitaxel (MeilunBio) were used as a positive control in each experiment. The cell growth curve was drawn with the concentration as the abscissa and the cell survival rate as the ordinate. The IC50 value of each saponin was calculated by the two-point method ([Reed and Muench, 1938]).

For a further assay, the system named is BEAS-2B. Nature of the assay: MTS cell viability assay, normal lung cell BEAS-2B. The note with it: read-out: IC50 (±SD) BEAS-2B. On the procedure: (§5) Three human liver cancer cell lines (SMMC-7721, HepG2, and SK-HEP-1) and the non-small-cell lung cancer (NSCLC) cell line A549 were obtained from ATCC (Manassas, VA, United States). Normal human cell lines (liver cell line LO2 and lung cell line BEAS-2B) were obtained from ATCC (Manassas, VA, United States). Cells were cultured in RMPI-1640 or DMEM medium (Biological Industries, Kibbutz Beit-Haemek, Israel) supplemented with 10% (v/v) fetal bovine serum (Biological Industries) at 37°C in a humidified atmosphere with 5% (v/v) CO2.
as §3, §4

For a further assay, the system named is LO2. As to the kind of experiment: MTS cell viability assay, normal liver cell LO2. On the procedure: as §5, §3, §4
In general terms: Tetrazolium assays rely on reduction of a dye to a coloured formazan, in cell work by metabolically active cells.

Assay [4] has as its system HepG2 cells. Nature of the assay: Cell cycle analysis (PI staining, flow cytometry), HepG2. The note with it: HepG2, 24 h, 1 μM. On the procedure:
as §1

The subject of the next assay is HepG2. As to the kind of experiment: MTS cell viability assay, HepG2. Conditions: read-out: IC50 (±SD) HepG2. Here is the method: as §3, §4
In a further assay the test system is SMMC-7721. As to the kind of experiment: MTS cell viability assay, SMMC-7721. The note with it: read-out: IC50 (±SD) SMMC-7721. On the procedure: as §3, §4
The test system of a further assay is SK-HEP-1. Nature of the assay: MTS cell viability assay, SK-HEP-1. The note with it: read-out: IC50 (±SD) SK-HEP-1. Here is the method: as §3, §4
The test system of assay [5] is A549 cells. Nature of the assay: Mitochondrial membrane potential (JC-10), A549. Conditions: A549, 2 μM, 24 h. On the procedure: (§6) The probe 5,6-dichloro-1,1′,3,3′- tetraethyl-imidacarbocyanine iodide (JC-10) was used as a measure of mitochondrial membrane potential ([Hirose et al., 1974]; [Chaudhari et al., 2008]). The effects of each of the six isolated saponins on mitochondrial membrane potential were determined using a JC-10 assay kit (×200, 10 μL/tube, five tubes), which was purchased from Beijing Solarbio Science & Technology Co., Ltd. (Beijing, China). Cells were cultured in a confocal dish with this method. After 12–24 h of inoculation and culture at 37°C, the purified saponins were added at the indicated concentrations. The cells were incubated at 37°C in a humidified atmosphere with 5% (v/v) CO2 for 24 h. The culture medium was removed, and the confocal dishes were washed twice with 1 mL PBS, followed by 0.5 mL incubation buffer containing 2.5 μL JC-10 (×200) at 37°C for 20 min in the dark. After incubation, the supernatant was removed, and the cells were washed twice with 1 mL JC-10 buffer and PBS. […] The wavelengths for excitation were 490 nm (green fluorescence) and 525 nm (red fluorescence). The wavelengths for emission were in the range of 495–565 nm (monomers for JC-10) and 550–620 nm (polymer for JC-10).

The subject of assay [6] is HepG2 cells. As to the kind of experiment: Mitochondrial membrane potential (JC-10), HepG2. Conditions: HepG2, 2 μM, 24 h. On the procedure: as §6
The test system of assay [7] is SMMC-7721 cells. As to the kind of experiment: Mitochondrial membrane potential (JC-10), SMMC-7721. Conditions: SMMC-7721, 2 μM, 24 h. On the procedure: as §6
Assay [8] relates to A549 cells. Nature of the assay: Apoptosis by annexin V-FITC/PI staining, A549. The note with it: A549, saponins 5 μM, Figure 7. Here is the method: as §2
For assay [9], the system named is HepG2 cells. As to the kind of experiment: Apoptosis by annexin V-FITC/PI staining, HepG2. The note with it: HepG2, saponins 5 μM, Figure 7. On the procedure:
as §2

The IC50 is the point on the concentration scale where inhibition reaches its midpoint. As to `CC1CCC2(OC1)OC1CC3C4CC=C5CC(OC6OC(CO)C(OC7OC(C)C(OC8OC(C)C(O)C(O)C8O)C(O)C7O)C(O)C6OC6OC(C)C(O)C(O)C6O)CCC5(C)C4CCC3(C)C1C2C` [saponin 6, diosgenin-3-O-α-L-rhamnopyranosyl-(1→2)-[α-L-rhamnopyranosyl-(1→4)-α-L-rhamnopyranosyl-(1→4)]-β-D-glucopyranoside], the “cell cycle phase with increased proportion of cells compared to DMSO control” value is reported as “G2/M phase” in the assay on A549 cells [1] and “cell cycle arrest at the G2/M phase” in the assay with SMMC-7721 cells [2]. The “increase of proportion of cells in the G2/M phase compared to DMSO control” value is 27.10% in the assay with SMMC-7721 cells [2] and 25.8% in the assay on HepG2 cells [4]. Also, the “apoptosis rate (induction of apoptosis, in words)” value in the assay with SMMC-7721 cells [3] is reported as “substantial induction of apoptosis”. For the same compound, the IC50 was found to be 240 ± 10 nM in the assay on A549 (Homo sapiens, A549, 48 h); 730 ± 30 nM in the assay with BEAS-2B (Homo sapiens, BEAS-2B); 370 ± 10 nM in the assay with LO2 (Homo sapiens, L02, read-out: IC50 (±SD) LO2); 2590 ± 30 nM in the assay with HepG2 (Homo sapiens, HepG2, 48 h); 450 ± 10 nM with SMMC-7721 (Homo sapiens, SMMC-7721, 48 h); 1300 ± 60 nM in the assay with SK-HEP-1 (Homo sapiens, SK-HEP1, 48 h).

`N#CC(C#N)=NNc1cccc(Cl)c1` [CCCP, carbonyl cyanide 3-chlorophenylhydrazone]: the “JC-10 green fluorescence (drop in mitochondrial membrane potential)” value in the assay on A549 cells [5], with HepG2 cells [6] and in the assay on SMMC-7721 cells [7] was “strong green fluorescence” throughout.

On to “pennogenin-3-O-α-L-rhamnopyranosyl-(1→2)-[α-L-rhamnopyranosyl-(1→4)]-β-D-glucopyranoside [saponin 1]”, for which the “cell cycle phase with increased proportion of cells compared to DMSO control” value with A549 cells [1] is recorded as “G2/M phase”. In addition, the “apoptosis rate (induction of apoptosis, in words)” value with SMMC-7721 cells [3] is “stronger apoptosis than the positive control DOX”; with SMMC-7721 cells [3] (listed as Saponin 1) it was “most effective in inducing apoptosis”; with A549 cells [8], “stronger apoptosis than the positive control DOX”; in the assay on A549 cells [8] (listed as Saponin 1) it was “most effective in inducing apoptosis”; with HepG2 cells [9], “next and stronger apoptosis than the positive control DOX”; in the assay on HepG2 cells [9] (listed as Saponin 1), “also effective”. For the same compound, the IC50 turned out to be 980 ± 10 nM in the assay on A549 (NSCLC cell line A549, MTS, 48 h); 1190 ± 10 nM in the assay on BEAS-2B (normal lung cell BEAS-2B, MTS); 1790 ± 100 nM with LO2 (normal liver cell LO2, MTS, read-out: IC50 (±SD) LO2); 1780 ± 10 nM with HepG2 (liver cancer cell line HepG2, MTS, 48 h); 760 ± 30 nM with SMMC-7721 (liver cancer cell line SMMC-7721, MTS, 48 h); 900 ± 40 nM with SK-HEP-1 (liver cancer cell line SK-HEP-1, MTS, 48 h). For the same compound, in the assay with HepG2 cells [4], the “increase of proportion of cells in S phase compared to DMSO control” value was 23.7%.
